Measured values as given in patent US10172868B2, “Substituted quinazolines for inhibiting kinase activity” (NeuPharma, Inc., priority 2013, dated 2019).

How the values were obtained:
[1] = molecular target: EGFR (ErbB1) (Homo sapiens (Human), UniProt P00533); assay: Z'-LYTE kinase inhibition assay, EGFR; type: biochemical; details: read-out: % inhibition against EGFR (Compound at 0.041 μM)
Experimental: Inhibitory activities of compounds against BTK, EGFR and EGFR mutants (EGFR L858R, EGFR T790M, EGFR L858R/T790M), FGFR1, FGFR2, JAK2, JAK3 and KDR were measured by Invitrogen using Z'-LYTE® Method as briefly described in the following. Test Compounds are screened in 1% DMSO (final) in the well. For 10 point titrations, 3-fold serial dilutions are conducted from the starting concentration. All ATP Solutions are diluted to a 4× working concentration in Kinase Buffer (50 mM HEPES pH 7.5, 0.01% BRIJ-35, 10 mM MgCl2, 1 mM EGTA). Peptide/Kinase Mixtures are diluted to a 2× working concentration in the appropriate Kinase Buffers as described below. (i) Peptide/Kinase Mixtures for Measurement of EGFR (ErbB1): The 2×EGFR (ErbB1)/[…] mixture is prepared in 50 mM HEPES pH 7.5, 0.01% BRIJ-35, 10 mM MgCl2. 4 mM MnCl2, 1 mM EGTA, 2 mM DTT. The final 10 μL Kinase Reaction consists of 1.1-5.25 ng EGFR (ErbB1) and 2 μM […] in 50 mM HEPES pH 7.5, 0.01% BRIJ-35, 10 mM MgCl2, 2 mM MnCl2. 1 mM EGTA, 1 mM DTT. After the 1 hour Kinase Reaction incubation, 5 μL of a 1:64 dilution of Development Reagent B is added. Reaction starts by 30-second shaking of mixture consisting of 2.5 μL 4× test compound, […] 2× kinase reaction mixture and 2.5 μL 4×ATP Solution on Bar-coded Corning, low volume NBS, black 384-well plate (Corning Cat. #3676). Then the mixture is incubated for 60-minute at room temperature for the kinase reaction, followed by addition of 5 μL of a 1:1024 dilution of development reagent A and 30-second plate shake. The mixture is then incubated for another 60-minute at room temperature for development reaction. Finally fluorescence is read by plate reader. To determine IC50 of a compound against EGFR, EGFR mutant and other kinases, a series of concentrations of the compound were tested for the inhibition.

[2] = molecular target: EGFR (ErbB1) T790M L858R (Homo sapiens (Human), UniProt P00533, L858R/T790M); assay: Z'-LYTE kinase inhibition assay, EGFR L858R/T790M; type: biochemical; details: for inhibition at 0.0137 µM: read-out: % inhibition against EGFR L858R/T790M (Compound at 0.0137 μM); for IC50: read-out: IC50 against EGFR L858R/T790M
Sequence of EGFR (ErbB1) T790M L858R (P00533 25-1210 T790M/L858R): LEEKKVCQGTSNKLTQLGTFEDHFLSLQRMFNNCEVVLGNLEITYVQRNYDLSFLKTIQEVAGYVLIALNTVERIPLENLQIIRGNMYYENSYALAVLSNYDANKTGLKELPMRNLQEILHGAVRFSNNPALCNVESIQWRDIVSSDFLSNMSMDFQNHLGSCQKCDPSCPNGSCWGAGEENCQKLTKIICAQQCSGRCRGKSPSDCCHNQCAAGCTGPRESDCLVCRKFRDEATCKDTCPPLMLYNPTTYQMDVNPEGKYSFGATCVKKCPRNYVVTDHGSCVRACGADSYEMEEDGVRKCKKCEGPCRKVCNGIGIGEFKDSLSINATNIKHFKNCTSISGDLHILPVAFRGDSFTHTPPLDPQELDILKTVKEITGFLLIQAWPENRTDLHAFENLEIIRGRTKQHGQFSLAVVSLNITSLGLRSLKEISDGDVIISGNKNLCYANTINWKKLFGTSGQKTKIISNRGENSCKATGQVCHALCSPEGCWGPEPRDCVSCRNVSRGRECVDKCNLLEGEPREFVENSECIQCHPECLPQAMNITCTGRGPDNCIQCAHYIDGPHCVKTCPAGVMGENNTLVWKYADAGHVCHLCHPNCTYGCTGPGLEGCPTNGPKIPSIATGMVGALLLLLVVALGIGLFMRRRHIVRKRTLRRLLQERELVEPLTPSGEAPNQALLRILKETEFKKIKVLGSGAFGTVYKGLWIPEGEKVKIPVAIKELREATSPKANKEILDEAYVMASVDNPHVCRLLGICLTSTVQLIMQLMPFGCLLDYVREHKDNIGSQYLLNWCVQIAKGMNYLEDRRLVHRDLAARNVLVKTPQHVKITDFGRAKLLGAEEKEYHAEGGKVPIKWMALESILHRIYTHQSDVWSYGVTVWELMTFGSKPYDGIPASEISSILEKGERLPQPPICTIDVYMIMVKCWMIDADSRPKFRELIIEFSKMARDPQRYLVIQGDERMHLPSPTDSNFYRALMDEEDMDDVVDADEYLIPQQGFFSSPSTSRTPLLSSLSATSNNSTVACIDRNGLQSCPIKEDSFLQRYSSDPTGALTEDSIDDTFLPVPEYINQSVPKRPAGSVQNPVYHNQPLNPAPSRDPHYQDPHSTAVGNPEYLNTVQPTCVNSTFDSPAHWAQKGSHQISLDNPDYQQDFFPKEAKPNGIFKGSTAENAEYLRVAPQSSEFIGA
Experimental: Inhibitory activities of compounds against BTK, EGFR and EGFR mutants (EGFR L858R, EGFR T790M, EGFR L858R/T790M), FGFR1, FGFR2, JAK2, JAK3 and KDR were measured by Invitrogen using Z'-LYTE® Method as briefly described in the following. Test Compounds are screened in 1% DMSO (final) in the well. For 10 point titrations, 3-fold serial dilutions are conducted from the starting concentration. All ATP Solutions are diluted to a 4× working concentration in Kinase Buffer (50 mM HEPES pH 7.5, 0.01% BRIJ-35, 10 mM MgCl2, 1 mM EGTA). Peptide/Kinase Mixtures are diluted to a 2× working concentration in the appropriate Kinase Buffers as described below. (iv) Peptide/Kinase Mixtures for Measurement of EGFR (ErbB1) T790M L858R: The 2×EGFR (ErbB1) […] mixture is prepared in 50 mM HEPES pH 6.5, 0.01% BRIJ-35, 10 mM MgCl2, 1 mM EGTA, 0.02% NaN3. […] After the 1 hour Kinase Reaction incubation, 5 μL of a 1:64 dilution of Development Reagent B is added. Reaction starts by 30-second shaking of mixture consisting of 2.5 μL 4× test compound, […] 2× kinase reaction mixture and 2.5 μL 4×ATP Solution on Bar-coded Corning, low volume NBS, black 384-well plate (Corning Cat. #3676). Then the mixture is incubated for 60-minute at room temperature for the kinase reaction, followed by addition of 5 μL of a 1:1024 dilution of development reagent A and 30-second plate shake. The mixture is then incubated for another 60-minute at room temperature for development reaction. Finally fluorescence is read by plate reader. To determine IC50 of a compound against EGFR, EGFR mutant and other kinases, a series of concentrations of the compound were tested for the inhibition.

[3] = system: H1975 cells; assay: Inhibition of cancer cell growth, MTT assay, H1975; details: Homo sapiens, NCI-H1975, 72 h, read-out: IC50 in H1975 cells

Sequence of EGFR (ErbB1) (P00533 25-1210): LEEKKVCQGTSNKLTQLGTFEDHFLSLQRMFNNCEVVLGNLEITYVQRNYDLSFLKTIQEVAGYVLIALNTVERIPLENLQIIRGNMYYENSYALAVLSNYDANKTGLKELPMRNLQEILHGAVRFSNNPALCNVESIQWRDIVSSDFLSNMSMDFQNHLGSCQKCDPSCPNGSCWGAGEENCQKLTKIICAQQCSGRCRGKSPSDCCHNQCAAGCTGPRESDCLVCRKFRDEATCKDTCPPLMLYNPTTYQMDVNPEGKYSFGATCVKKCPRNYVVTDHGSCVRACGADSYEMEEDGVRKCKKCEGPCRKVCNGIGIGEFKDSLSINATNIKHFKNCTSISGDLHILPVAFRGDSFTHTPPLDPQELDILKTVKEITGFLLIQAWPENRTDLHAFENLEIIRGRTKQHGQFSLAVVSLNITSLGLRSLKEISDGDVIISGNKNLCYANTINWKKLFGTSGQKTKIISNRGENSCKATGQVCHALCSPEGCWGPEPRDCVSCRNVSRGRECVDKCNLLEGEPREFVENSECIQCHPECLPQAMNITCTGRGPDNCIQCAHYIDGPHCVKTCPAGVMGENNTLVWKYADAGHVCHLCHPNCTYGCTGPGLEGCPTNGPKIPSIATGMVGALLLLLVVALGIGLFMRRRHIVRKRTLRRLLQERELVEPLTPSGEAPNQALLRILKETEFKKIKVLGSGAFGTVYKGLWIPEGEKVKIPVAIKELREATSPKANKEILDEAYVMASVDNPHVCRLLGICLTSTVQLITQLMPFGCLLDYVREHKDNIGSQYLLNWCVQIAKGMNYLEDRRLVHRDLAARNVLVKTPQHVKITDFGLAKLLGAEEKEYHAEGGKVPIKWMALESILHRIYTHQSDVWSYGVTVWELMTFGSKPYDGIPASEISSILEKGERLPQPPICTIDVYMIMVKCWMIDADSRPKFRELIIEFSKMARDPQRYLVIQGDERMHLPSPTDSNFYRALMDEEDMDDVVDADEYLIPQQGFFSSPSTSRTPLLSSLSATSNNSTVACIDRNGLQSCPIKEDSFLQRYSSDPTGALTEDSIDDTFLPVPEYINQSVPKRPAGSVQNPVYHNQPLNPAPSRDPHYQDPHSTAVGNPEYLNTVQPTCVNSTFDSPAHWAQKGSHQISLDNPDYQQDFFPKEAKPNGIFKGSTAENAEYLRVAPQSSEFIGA

C=CC(=O)Nc1cccc(-c2cccc3cnc(Nc4ccc(NCCO)cc4)nc23)c1 [Example C066, N-(3-(2-((4-((2-hydroxyethyl)amino)phenyl)amino)quinazolin-8-yl)phenyl)acrylamide]
inhibition at 0.041 µM [1]: < 50% | inhibition at 0.0137 µM [2]: < 50% | IC50 [3]: > 0.5 µM

C=CC(=O)Nc1ccc(F)c(-c2cccc3cnc(Nc4ccc(N5CCN(C)CC5)cc4)nc23)c1 [Example C067, N-(4-fluoro-3-(2-((4-(4-methylpiperazin-1-yl)phenyl)amino)quinazolin-8-yl)phenyl)acrylamide]
inhibition at 0.041 µM [1]: > 50% | inhibition at 0.0137 µM [2]: > 50% | IC50 [2]: < 0.1 µM | IC50 [3]: < 0.1 µM

C=CC(=O)N1CCN(c2cccc3cnc(Nc4ccc(N5CCN(C)CC5)cc4)nc23)CC1 [Example C070, 1-(4-(2-((4-(4-methylpiperazin-1-yl)phenyl)amino)quinazolin-8-yl)piperazin-1-yl)prop-2-en-1-one]
inhibition at 0.041 µM [1]: < 50% | inhibition at 0.0137 µM [2]: < 50% | IC50 [3]: > 0.5 µM

C=CC(=O)N1CCC=C(c2cccc3cnc(Nc4ccc(N5CCN(C)CC5)cc4)nc23)C1 [Example C071, 1-(3-(2-((4-(4-methylpiperazin-1-yl)phenyl)amino)quinazolin-8-yl)-5,6-dihydropyridin-1(2H)-yl)prop-2-en-1-one]
inhibition at 0.041 µM [1]: < 50% | inhibition at 0.0137 µM [2]: < 50% | IC50 [3]: > 0.5 µM

C=CC(=O)Nc1ccc(Cl)c(-c2cccc3cnc(Nc4ccc(N5CCN(C)CC5)cc4)nc23)c1 [Example C073, N-(4-chloro-3-(2-((4-(4-methylpiperazin-1-yl)phenyl)amino)quinazolin-8-yl)phenyl)acrylamide]
inhibition at 0.041 µM [1]: < 50% | inhibition at 0.0137 µM [2]: > 50% | IC50 [3]: 0.1 to 0.5 µM

C=CC(=O)Nc1cccc(-c2cccc3cnc(Nc4ccc(N5CCN(C(=O)OC)CC5)cc4)nc23)c1 [Example C076, methyl 4-(4-((8-(3-acrylamidophenyl)quinazolin-2-yl)amino)phenyl)piperazine-1-carboxylate]
inhibition at 0.041 µM [1]: < 50% | inhibition at 0.0137 µM [2]: < 50% | IC50 [3]: > 0.5 µM

C=CC(=O)Nc1cccc(-c2cccc3cnc(Nc4ccc(N5CCN(C)C(CO)C5)cc4)nc23)c1 (stereo not drawn) [Example C077, N-(3-(2-((4-(3-(hydroxymethyl)-4-methylpiperazin-1-yl)phenyl)amino)quinazolin-8-yl)phenyl)acrylamide]
inhibition at 0.041 µM [1]: < 50% | inhibition at 0.0137 µM [2]: > 50% | IC50 [2]: < 0.1 µM | IC50 [3]: < 0.1 µM

C=CC(=O)Nc1cccc(-c2cccc3cnc(Nc4cnc(N5CCN(C)CC5)c(Cl)c4)nc23)c1 [Example C081, N-(3-(2-((5-chloro-6-(4-methylpiperazin-1-yl)pyridin-3-yl)amino)quinazolin-8-yl)phenyl)acrylamide]
inhibition at 0.041 µM [1]: < 50% | inhibition at 0.0137 µM [2]: > 50% | IC50 [2]: < 0.1 µM | IC50 [3]: 0.1 to 0.5 µM

C=CC(=O)Nc1cccc(-c2cccc3cnc(Nc4ccc(N5CCN(C(=O)CO)CC5)cc4)nc23)c1 [Example C082, N-(3-(2-((4-(4-(2-hydroxyacetyl)piperazin-1-yl)phenyl)amino)quinazolin-8-yl)phenyl)acrylamide]
inhibition at 0.041 µM [1]: < 50% | inhibition at 0.0137 µM [2]: > 50% | IC50 [3]: 0.1 to 0.5 µM

C=CC(=O)Nc1cccc(-c2cccc3cnc(Nc4ccc(N5CCN(C(=O)NC)CC5)cc4)nc23)c1 [Example C083, 4-(4-((8-(3-acrylamidophenyl)quinazolin-2-yl)amino)phenyl)-N-methylpiperazine-1-carboxamide]
inhibition at 0.041 µM [1]: < 50% | inhibition at 0.0137 µM [2]: > 50% | IC50 [3]: 0.1 to 0.5 µM

C=CC(=O)Nc1cccc(-c2cccc3cnc(Nc4ccc(N5CCN(C(=O)CC)CC5)cc4)nc23)c1 [Example C084, N-(3-(2-((4-(4-propionylpiperazin-1-yl)phenyl)amino)quinazolin-8-yl)phenyl)acrylamide]
inhibition at 0.041 µM [1]: < 50% | inhibition at 0.0137 µM [2]: > 50% | IC50 [3]: 0.1 to 0.5 µM

C=CC(=O)Nc1cccc(-c2cccc3cnc(Nc4cnc(N5CCN(C)CC5)c(C#N)c4)nc23)c1 [Example C086, N-(3-(2-((5-cyano-6-(4-methylpiperazin-1-yl)pyridin-3-yl)amino)quinazolin-8-yl)phenyl)acrylamide]
inhibition at 0.041 µM [1]: < 50% | inhibition at 0.0137 µM [2]: > 50% | IC50 [3]: 0.1 to 0.5 µM

C=CC(=O)Nc1cccc(-c2cccc3cnc(Nc4ccc(N5CCN(C)C(C(=O)OC)C5)cc4)nc23)c1 (stereo not drawn) [Example C089, methyl 4-(4-((8-(3-acrylamidophenyl)quinazolin-2-yl)amino)phenyl)-1-methylpiperazine-2-carboxylate]
inhibition at 0.041 µM [1]: < 50% | inhibition at 0.0137 µM [2]: < 50% | IC50 [3]: 0.1 to 0.5 µM

C=CC(=O)Nc1cccc(-c2cccc3cnc(Nc4ccc(N5CCN(C)C(C(=O)O)C5)cc4)nc23)c1 (stereo not drawn) [Example C090, 4-(4-((8-(3-acrylamidophenyl)quinazolin-2-yl)amino)phenyl)-1-methylpiperazine-2-carboxylic acid]
inhibition at 0.041 µM [1]: < 50% | inhibition at 0.0137 µM [2]: > 50% | IC50 [3]: 0.1 to 0.5 µM

C=CC(=O)Nc1cccc(-c2cccc3cnc(Nc4ccc(N5CCN(S(C)(=O)=O)CC5)cc4)nc23)c1 [Example C092, N-(3-(2-((4-(4-(methylsulfonyl)piperazin-1-yl)phenyl)amino)quinazolin-8-yl)phenyl)acrylamide]
inhibition at 0.041 µM [1]: < 50% | inhibition at 0.0137 µM [2]: < 50% | IC50 [3]: 0.1 to 0.5 µM

C=CC(=O)Nc1cccc(-c2cccc3cnc(Nc4ccc(N5CCN(C)C(C(N)=O)C5)cc4)nc23)c1 (stereo not drawn) [Example C093, 4-(4-((8-(3-acrylamidophenyl)quinazolin-2-yl)amino)phenyl)-1-methylpiperazine-2-carboxamide]
inhibition at 0.041 µM [1]: < 50% | inhibition at 0.0137 µM [2]: > 50% | IC50 [3]: 0.1 to 0.5 µM

C=CC(=O)Nc1cccc(-c2cccc3cnc(Nc4ccc(-n5ccnc5)cc4)nc23)c1 [Example C094, N-(3-(2-((4-(1H-imidazol-1-yl)phenyl)amino)quinazolin-8-yl)phenyl)acrylamide]
inhibition at 0.041 µM [1]: < 50% | inhibition at 0.0137 µM [2]: < 50% | IC50 [3]: 0.1 to 0.5 µM

C=CC(=O)Nc1cccc(-c2cccc3cnc(Nc4ccc(N5CCOCC5=O)cc4)nc23)c1 [Example C095, N-(3-(2-((4-(3-oxomorpholino)phenyl)amino)quinazolin-8-yl)phenyl)acrylamide]
inhibition at 0.041 µM [1]: < 50% | inhibition at 0.0137 µM [2]: < 50% | IC50 [3]: 0.1 to 0.5 µM

C=CC(=O)Nc1cccc(-c2cccc3cnc(Nc4ccc(N5CCCC5=O)cc4)nc23)c1 [Example C096, N-(3-(2-((4-(2-oxopyrrolidin-1-yl)phenyl)amino)quinazolin-8-yl)phenyl)acrylamide]
inhibition at 0.041 µM [1]: < 50% | inhibition at 0.0137 µM [2]: < 50% | IC50 [3]: < 0.1 µM

C=CC(=O)Nc1cccc(-c2cccc3cnc(Nc4ccc(N5CCNC5=O)cc4)nc23)c1 [Example C097, N-(3-(2-((4-(2-oxoimidazolidin-1-yl)phenyl)amino)quinazolin-8-yl)phenyl)acrylamide]
inhibition at 0.041 µM [1]: < 50% | inhibition at 0.0137 µM [2]: < 50% | IC50 [3]: 0.1 to 0.5 µM
